In publication PMC6078987, “Molecular insights into antibiotic resistance - how a binding protein traps albicidin” (Nature Communications, 2018):
“And” between values parts separate entries of the source, which are not always exact repeats. Equal entries are not always repeated. “Also recorded” adds a separate entry of the source.

Experiments:
E. coli DH5α = test: Agar diffusion assay; type: cell-based; conditions: for neutralization of antibacterial activity by AlbAS: 40 µM compound pre-incubated with 40 µM AlbAS; for antibacterial activity in agar diffusion assay: 40 µM compound, E. coli DH5α, 18 h 37 °C
Method: To verify the neutralizing ability of AlbAS, AlbAL, AlbASM, AlbASCTD, or AlbASNTD against different compounds, agar diffusion assays with the respective compounds were performed. An overnight culture of E. coli DH5α was diluted to an OD600 of 0.05 with 0.75% LB-agar. The protein-albicidin reaction mixture consisted of a 1:1 mixture of 40 μM albicidin (or derivatives) with 40 μM protein (either AlbAS or its variants AlbAL, AlbASM, AlbASNTD, and AlbASCTD). The mixture was incubated for 20 min at room temperature in the dark. Reaction mixtures of 30 μL were transferred in triplicates of 2 mm holes on the inoculated agar plate. The plates were evaluated concerning growth-inhibition zone after incubation for 18 h at 37 °C.

AlbAS [1] = target: T1, AlbAS (Klebsiella oxytoca, UniProt Q8KRS7); test: 1H-15N HSQC NMR binding assay; conditions: 15N-labeled AlbAS, 1.5-fold excess of ligand
T1 sequence (Q8KRS7 1-221): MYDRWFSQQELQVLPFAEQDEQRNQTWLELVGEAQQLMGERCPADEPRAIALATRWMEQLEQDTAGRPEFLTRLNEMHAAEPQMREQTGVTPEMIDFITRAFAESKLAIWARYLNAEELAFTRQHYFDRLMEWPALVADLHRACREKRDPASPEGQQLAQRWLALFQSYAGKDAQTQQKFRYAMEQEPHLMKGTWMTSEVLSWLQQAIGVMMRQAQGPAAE
Method: For binding studies with albicidin and its derivatives, each ligand was dissolved in 100% d6-DMSO and added to ^15N-labeled AlbAS or ^2H, ^15N-labeled AlbAL in 50 mM sodium hydrogen phosphate (pH 6.8), 150 mM NaCl buffer (usually 0.24 mM AlbAS or AlbAL in 85% buffer, 5% d6-DMSO, and 10% D2O) yielding a 1.5-fold excess of the ligand. After incubation for 20 min at room temperature in the dark, the sample was centrifuged at 20 000 × g for 3 min and the supernatant was transferred to a 5 mm NMR tube. The AlbAS blank sample (Supplementary Figure 14) was measured in 100% buffer without addition of ligands and DMSO. Spectra were recorded on a Bruker Avance III 700 MHz NMR spectrometer (Bruker BioSpin, Rheinstetten, Germany) with a TXI probe head. Standard Bruker pulse sequences were used. 2D ^1H-^15N HSQC spectra were recorded at 298 K with acquisition times of 90 and 22 ms for the ^1H and ^15N dimension, respectively. The experiments were accumulated with ≥16 scans depending on protein sample concentration. 2D ^1H-^15N TROSY spectra were accumulated with 256 scans and acquisition times of 90 and 22 ms for the ^1H and ^15N dimension, respectively. Several AlbAS–albicidin samples were measured with the same result and a representative spectrum is given for the figures in the main manuscript and the SI. NMR experiments with AlbAS and albicidin analogs were conducted once with accumulation of ≥16 scans depending on protein concentration. For alignment of HSQC and TROSY spectra, the TROSY spectrum was corrected by 1/2 ^1JNH in both dimensions. […]

AlbAS [2] = target: T1, AlbAS; test: Fluorescence quenching binding assay (tryptophan fluorescence) with AlbAS; conditions: for Kd: AlbAS 20 nM, fluorescence quenching, pH 6.8
Method: Fluorescence quenching measurements were performed by monitoring tryptophan fluorescence of AlbAS (20 nM), AlbAL (20 nM), AlbASNTD, and AlbASCTD (100 nM) on a FluoroMax 2 spectrometer from Horiba (Potsdam, Germany). The excitation wavelength was set to λexc = 280 nm. Emission spectra were recorded from λem = 290–450 nm with a scanning speed of 1 nm s^−1 and an integration time of 1 s. The excitation and emission slit widths were set to 8 and 4 nm, respectively. Proteins were solved in 50 mM sodium phosphate buffer with 150 mM NaCl and 0.01% DMSO at pH 6.8. All measurements were performed twice and the standard deviation is given for the Kd and the Hill factor n. Data evaluation was performed by integration of the emission band (318–410 nm for AlbAS, 316–412 nm for AlbAL, and 319–390 nm for AlbASNTD and AlbASCTD) for every titration step. The area under the curve (AUC) of the buffer blank (buffer with 0.01% DMSO) was subtracted from the measured titration data. The quenching factor was determined by subtraction of AUCs for each titration step from the AUC of the protein in the absence of ligand. For determination of the AlbAS– and AlbAL–albicidin Kd values, the data were fitted to Eq. (2).2 Y=Bmax[L]^n/Kdn+[L]^n where [L], n, and Bmax denote the total ligand concentration, the Hill coefficient, and the maximum binding capacity of the protein, respectively.
For the determination of the Kd for AlbAS–compound 7 the data were fitted to Eq. (3).3 Y=Pt+L+Kd-Pt+L+Kd^2-4PtL/2 where Pt is the total protein concentration.

Structure (SMILES) | neutralization of antibacterial activity by AlbAS (E. coli DH5α) | antibacterial activity in agar diffusion assay (E. coli DH5α) | binding to AlbAS by HSQC signal pattern (in words) (AlbAS [1]) | Kd (AlbAS [2]) | effect on fluorescence emission of AlbAS (in words) (AlbAS [2]; AlbAS 20 nM titrated with compound)
COc1c(NC(=O)c2ccc(NC(=O)c3ccc(NC(=O)[C@@H](NC(=O)c4ccc(NC(=O)c5ccc(O)cc5)cc4)[C@@H](C)O)cc3)c(OC)c2O)ccc(C(=O)O)c1O [compound 2] | confirmed binding | strongly antibacterial | characteristic HSQC signal pattern as in the case of albicidin binding; also recorded: no significant effect on AlbAS binding |  | 
COc1c(NC(=O)c2ccc(NC(=O)c3ccc(N)cc3)c(OC)c2O)ccc(C(=O)O)c1O [compound 5] |  | did not display antibacterial activity | slow-exchange regime (strong binding) | ~55.5 nM and 55.5 nM | 
C/C(=C\c1ccc(O)cc1)C(=O)Nc1ccc(C(=O)O)cc1 [compound 4] |  | did not display antibacterial activity | weak binding |  | did not lead to significant quenching; also recorded: no consistent effect on fluorescence emission spectra
COC(C(N)=O)C(NC(=O)c1ccc(NC(=O)c2ccc([N+](=O)[O-])cc2)cc1)C(=O)Nc1ccc(C(=O)Nc2ccc(C(=O)Nc3ccc(C(=O)O)cc3OC(C)C)cc2OC(C)C)cc1 (centres unmarked) [compound 7] | able to neutralize the antibacterial effects of compound 7, albeit with decreased efficiency |  | strong binding of compound 7 in the nanomolar Kd range | 14 ± 2.9 nM | 
COc1c(NC(=O)c2ccc(NC(=O)[C@H](CC#N)NC(=O)c3ccc(N)cc3)cc2)ccc(C(=O)O)c1O [compound 6] |  | did not display antibacterial activity | slow-exchange regime (strong binding) |  | 
COc1c(NC(=O)c2ccc(NC(=O)c3ccc(NC(=O)[C@@H](CC#N)NC(=O)c4ccc(NC(=O)/C(C)=C/c5ccc(O)cc5)cc4)cc3)c(OC)c2O)ccc(C(=O)O)c1O [compound 3] | prohibit its antibacterial effects; also recorded: neutralizing effect |  | still able to bind; also recorded: binding mode equivalent to that of albicidin |  | 
COc1c(NC(=O)c2ccc(NC(=O)c3ccc(NC(=O)[C@H](CC#N)NC(=O)c4ccc(NC(=O)/C(C)=C/c5ccc(F)cc5)cc4)cc3)c(OC)c2O)ccc(C(=O)O)c1O [compound 1] | abolished the antibacterial activity |  |  |  | 
